From ChEMBL document CHEMBL5226354, “The Medicinal Chemistry and Therapeutic Potential of LRH-1 Modulators” (J Med Chem, 2021)
pIC50: −log10 of the molar value.

Assays:
[1] = biological target: T1, Nuclear receptor subfamily 5 group A member 2 (Homo sapiens, UniProt O00482); assay: Antagonist activity at human LRH-1
[2] = biological target: T1, Nuclear receptor subfamily 5 group A member 2; assay: Inhibition of full length LRH1 transfected in HEK293T cells incubated for 20 hrs by luciferase reporter assay; assay type: cell-based
[3] = biological target: T1, Nuclear receptor subfamily 5 group A member 2; assay: Inhibition of full length LRH1 in HEK293T cells at 550 nM incubated for 20 hrs by luciferase reporter assay relative to control; assay type: cell-based
[4] = biological target: T1, Nuclear receptor subfamily 5 group A member 2; assay: Inhibition of full length LRH1 in HEK293T cells at 10 uM incubated for 20 hrs by luciferase reporter assay relative to control; assay type: cell-based
[5] = biological target: T1, Nuclear receptor subfamily 5 group A member 2; assay: Antagonist activity at human recombinant LRH-1 LBD ([…] to 541 residues)

T1 sequence (O00482 whole entry): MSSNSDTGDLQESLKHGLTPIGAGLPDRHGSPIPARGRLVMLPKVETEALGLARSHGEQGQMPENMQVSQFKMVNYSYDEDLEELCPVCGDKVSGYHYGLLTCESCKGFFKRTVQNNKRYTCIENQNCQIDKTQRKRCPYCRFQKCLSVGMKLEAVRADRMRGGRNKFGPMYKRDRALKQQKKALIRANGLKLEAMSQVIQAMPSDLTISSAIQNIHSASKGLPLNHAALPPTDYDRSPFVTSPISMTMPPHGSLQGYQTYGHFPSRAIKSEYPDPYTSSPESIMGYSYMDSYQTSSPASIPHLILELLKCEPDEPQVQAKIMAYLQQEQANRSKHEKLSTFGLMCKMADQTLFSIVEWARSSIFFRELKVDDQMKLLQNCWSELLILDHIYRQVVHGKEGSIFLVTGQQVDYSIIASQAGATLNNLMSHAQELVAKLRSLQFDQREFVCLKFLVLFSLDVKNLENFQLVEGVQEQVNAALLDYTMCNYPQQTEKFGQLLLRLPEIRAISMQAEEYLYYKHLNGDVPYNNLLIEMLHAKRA

Structure (SMILES): Cc1nc(N(C)C)nc(-c2cccc(-c3ccn(CCN(C)C)n3)c2)c1C
- pIC50 [1]: 5.22

Structure (SMILES): O=c1cc(N2CCN(c3cccc(C(F)(F)F)c3)CC2)[nH]c(=O)n1C1CCCCC1
- pIC50 [2]: 6.49
- inhibition [3]: 40%

Structure (SMILES): O=c1cc(N2CCN(c3cccc(Cl)c3)CC2)[nH]c(=O)n1C1CCCCC1
- inhibition [4]: 64%
- pIC50 [2]: 5.43

Structure (SMILES): CC(=O)c1cccc(-c2cccc(-c3ccn(CCN4CCOCC4)n3)c2)c1
- pIC50 [1]: 5.30

Structure (SMILES): O=C(c1ccc(OCCN2CCCCC2)cc1)c1c(-c2ccc(O)cc2)sc2c(C(=O)c3ccc(OCCN4CCCCC4)cc3)c(O)ccc12
- pIC50 [5]: 5.51
